This note sets out measurements from patent publication US9173952B2, “Mitochondrial penetrating peptides as carriers for antimicrobials” (priority 2010, dated 2015).

Data set [1] deals with HeLa cells. Kind of data set: Measurement of mitochondrial membrane potential (JC-1, flow cytometry). The format is cell-based, human. As to conditions: Mtx-Fxr3 16 μM 72 hours, FCCP 10 μM 6 minutes. The protocol: HeLa cells were seeded in at 6,250 cells per well in 24 well plates. […] Carbonyl cyanide 4-(trifluoromethoxy)phenylhydrazone (FCCP) was added at 10 μM for 6 minutes prior to analysis to disrupt the mitochondrial membrane potential. The mitchondrial membrane potential sensitive dye JC-1 (Invitrogen, Carlsbad Calif.) was added at 5 μg/mL for 10 minutes at 37° C. Cells were washed with PBS and harvested as described above. Samples were subsequently analyzed by flow cytometry on a BD FACSCanto flow cytometer (BD Biosciences) with excitation at 488 nm and emmission wavelengths of 530 nm and 585 nm collected. Ratio of these two emmission wavelengths was used to measure changes in mitochondrial membrane potential.
(A flow cytometer gives signals particle by particle.)

In another data set the test system is S. aureus (ATCC 29213). Briefly: microbe, parasite or virus in culture. The data set is classed as cell-based, Staphylococcus aureus. The protocol:
(§1) Cell Culturing Conditions. HeLa cells were cultured in MEM alpha (Invitrogen, Carlsbad) supplemented with 10% (v/v) FBS at 37° C. with 5% CO2. Escherichia coli strain JW5503 from the Keio collection^12 (F−, Δ(araD-araB)567, ΔlacZ4787(:rrnB-3), λ^−, ΔtolC732:kan, rph-1, Δ(rhaD-rhaB)568, hsdR514) was grown on solid LB-agar or in LB liquid media supplemented with 50 μg/mL kanamycin at 37° C. Strains harboring the pCA24N plasmid were additionally grown with chloramphenicol at 20 μg/mL. B. subtilis was grown in LB media. S. aureus and E. faecalis were grown in Trypticase Soy Broth (TSB). S. pneumoniae were grown in TSB+5% defibrinated sheep's blood at 37° C. in an atmosphere of 5% CO2.
(§2) Minimum inhibitory concentration (MIC) determinations were performed to characterize the effect of each compound on bacterial growth. Briefly, overnight cultures were subcultured at 1:100 and grown to and OD600 of 0.5. Cells were Diluted 1:10000 into fresh media with test compounds. Cells were incubated for 16 hours at 37° C. Growth was monitored at OD600. Multi-copy suppression of compound toxicity was accomplished by inducing FolA (DHFR) expression from the pCA24N plasmid with 0.1 mM IPTG prior the incubation with test compounds. Compound toxicity was assessed in LB media for E. coli. […]

Data set [2] relates to S. pneumoniae (ATCC 49619). Briefly: microbe, parasite or virus in culture. The data set is classed as cell-based, Streptococcus pneumoniae.
Experimental: Minimum inhibitory concentration (MIC) determinations were performed to characterize the effect of each compound on bacterial growth. Briefly, overnight cultures were subcultured at 1:100 and grown to and OD600 of 0.5. Cells were Diluted 1:10000 into fresh media with test compounds. Cells were incubated for 16 hours at 37° C. Growth was monitored at OD600. […] For S. aureus B. subtilis, S. pneumonaie, and E. faecalis the defined media Mem-alpha minus nucleotides (Invitrogen, Carlsbad Calif.) was used to control for variability in thymidine content of undefined media. The final dilution into media was at 1:2000 for S. pneumoniae, and E. faecalis. 3% laked horse blood was added to the media for S. pnemoniae.
The test system of another data set is MRSA (ATCC BAA-1720). Briefly: microbe, parasite or virus in culture. The format is cell-based, methicillin-resistant S. aureus. The procedure: as §1, §2
Another data set concerns E. faecalis (ATCC 29212). Kind of data set: microbe, parasite or virus in culture. The format is cell-based, Enterococcus faecalis. The protocol: as §1, §2
Another data set relates to B. subtilis. Briefly: microbe, parasite or virus in culture. The data set is classed as cell-based, Bacillus subtilis. The protocol: as §1, §2
A further data set relates to E. coli strain JW5503. Kind of data set: microbe, parasite or virus in culture. The data set is classed as cell-based, Escherichia coli. The procedure: as §1, §2
For data set [3], the system named is HeLa cells. Kind of data set: Measurement of cellular ATP levels. The data set is classed as cell-based, human. As to conditions: Mtx-Fxr3 16 μM 16 hours, rotenone 100 nM 1 hour. The protocol:
HeLa cells were seeded at a density of 50,000 cells per well one day prior to experiments. […] After treatment, cells were washed with PBS, harvested with trypsin/EDTA for 7 min at 37° C. Complete media was added to terminate the reaction and cells were collected by centrifugation (8 min at 700×g) and washed with PBS. Cells were lysed with 40 μl 1% TCA/4 mM EDTA for 20 minutes on ice, followed by 20 μl 1M Tris buffer pH 7.4. ATP levels were assessed using the ATP Bioluminescent Assay Kit (Sigma, Saint Louis Mich.) and a Spectramax M5 plate reader (Molecular Devices, Sunnyvale Calif.).

The nature of data set [4]: Analysis of cell toxicity (HeLa), CCK-8 viability. The data set is classed as cell-based. As to conditions: human, HeLa cells, 72-hour incubation, read-out: LD50 (50% lethal dose, concentration where 50% toxicity is observed).
Experimental: HeLa cells were cultured as described above. Cells were seeded in 96-well flat bottom tissue culture plates (Starsted, N.C.) at a density of 1500 cells per well. The culture media was removed and cells were washed with MEM-alpha (minus nucleotides). […] Cellular viability was analyzed after the indicated times using the CCK-8 viability dye (Dojindo, Rockville, Md.) at an absorbance of 450 nm.

Each structure is given as a SMILES string. ≈ marks a conversion by molar mass, not a printed value. Entries after “also recorded” stand apart in the source; their conditions may differ. Where two headings read alike, the source gives them in different places. Starred links: 1 amine or outer side, 2 acyl side, 3 side chain; linkers in the order of their positions; H or OH if unused. Non-standard residues stand in square brackets, D forms with d. Residues, ends and D or L forms follow the SMILES beside them. *: point of attachment. DAMPA = CN(Cc1cnc2nc(N)nc(N)c2n1)c1ccc(C(=O)*)cc1; γGlu = O=C(O)[C@H](CCC(=O)[*:2])N[*:1]; Cha = N[C@@H](CC1CCCCC1)C(=O)O

For `N#CC(C#N)=NNc1ccc(OC(F)(F)F)cc1` [FCCP, Carbonyl cyanide 4-(trifluoromethoxy)phenylhydrazone, reference compound], the “effect on mitochondrial membrane potential” value in the data set on HeLa cells [1] was “significant decrease in membrane potential”.
Turning to `N=C(N)NCCC[C@@H](NC(=O)[C@H](CC1CCCCC1)NC(=O)[C@@H](CCCNC(=N)N)NC(=O)[C@H](CC1CCCCC1)NC(=O)[C@@H](CCCNC(=N)N)NC(=O)[C@@H](N)CC1CCCCC1)C(N)=O` [Fxr3, FxrFxrFxr] (H-[Cha][dR][Cha][dR][Cha][dR]-NH2; N-terminus assumed), the MIC against S. aureus (ATCC 29213) (ATCC 29213) is above 32 µM; in data set [2] (ATCC 49619) it was above 16 µM; in the data set with MRSA (ATCC BAA-1720) (ATCC BAA-1720) it was above 32 µM; against E. faecalis (ATCC 29212) (ATCC 29212), above 16 µM; with B. subtilis it was above 16 µM.
Consider `CN(Cc1cnc2nc(N)nc(N)c2n1)c1ccc(C(=O)N[C@@H](CCC(=O)O)C(=O)O)cc1` [Mtx, methotrexate, reference compound], for which the MIC was above 32 µM against S. aureus (ATCC 29213) (Staphylococcus aureus, ATCC29213, S. aureus (ATCC 29213), Mem-alpha minus nucleotides); 0.5 µM (≈ 0.227 µg/mL) in data set [2] (Streptococcus pneumoniae, ATCC49619, S. pneumoniae (ATCC 49619), Mem-alpha minus nucleotides, 3% laked horse blood); above 32 µM in the data set with MRSA (ATCC BAA-1720) (Staphylococcus aureus, MRSA (ATCC BAA-1720)); 4 µM (≈ 1.82 µg/mL) in the data set on E. faecalis (ATCC 29212) (Enterococcus faecalis, ATCC29212, E. faecalis (ATCC 29212), Mem-alpha minus nucleotides); above 32 µM with E. coli strain JW5503 (Escherichia coli, JW5503, 16 h, read-out: MIC (minimum inhibitory concentration)); above 16 µM in the data set on B. subtilis (Bacillus subtilis, B. subtilis, Mem-alpha minus nucleotides).
With `CN(Cc1cnc2nc(N)nc(N)c2n1)c1ccc(C(=O)N[C@@H](CCC(=O)N[C@@H](CC2CCCCC2)C(=O)N[C@H](CCCNC(=N)N)C(=O)N[C@@H](CC2CCCCC2)C(=O)N[C@H](CCCNC(=N)N)C(=O)N[C@@H](CC2CCCCC2)C(=O)N[C@H](CCCNC(=N)N)C(N)=O)C(=O)O)cc1` [Mtx-Fxr3, Mtx-FxrFxrFxr] ({DAMPA-γGlu}-[Cha][dR][Cha][dR][Cha][dR]-NH2), the “effect on cellular ATP levels” value in the data set with HeLa cells [3] is “did not result in a decrease in cellular ATP levels; also recorded: did not affect”. The “effect on mitochondrial membrane potential” value with HeLa cells [1] is “not perturb the mitochondrial membrane potential; also recorded: did not affect”. For the same molecule, the “MIC (minimum inhibitory concentration)” value with E. coli strain JW5503 (strain JW5503, 16 h) is 0.5 µM (≈ 0.691 µg/mL). For the same molecule, the CC50 at 72 h in data set [4] was above 16 µM.
